According to patent US20250339812A1, “ELECTROCHEMICAL DIRECT AIR CAPTURE OF CARBON DIOXIDE USING REVERSIBLE REDOX-ACTIVE MATERIAL” (Massachusetts Institute of Technology, priority 2022, published 2025):
Read-outs that look alike come from different tables or passages of the source.

Assays:
[1] = pKa of the NR/NRH equilibrium; assay type: physicochemical
Text: After basification, a carbon dioxide rich gas stream was introduced to saturate and consequently acidify the solution.

[2] = Cyclic voltammetry redox durability of NR (100 cycles); details: after 100 cyclic voltammetry cycles
Text: The electrochemistry of the NR aqueous solution was examined by CV at various pH levels between 6 and 12 (FIG. 2A).

[3] = for peak intensity degradation: nitrogen control
Text: FIG. 5C is a UV-vis spectra for the oxygen sensitivity test.
FIG. 5D is a UV-vis spectra for the control experiment under nitrogen.
FIG. 5E is a UV-vis spectra for the stability test under carbon dioxide.
FIG. 5F is a UV-vis spectra for the stability test under air.
The factors contributing to the 455 nm peak degradation were examined, including decomposition, reoxidation, precipitation, and polymerization.
A third set of UV-vis absorption measurements […], this time on solutions contacted with carbon dioxide, was carried out. […] The final set of UV-vis absorption experiments in FIG. 5F was carried out using solutions bubbled with ambient air.

pKa [1] | decay in the peak current [2] | sensitivity to oxygen ([3]; UV-vis absorption spectroscopy, 50 mM NRH2 in 1 M NA and 0.5 M KCl in water) | intensities of the 455 nm peak ([3]; bubbled with ambient air, 30 min and 2 h contact) | degradation of peak intensity at 455 nm ([3]; contacted with carbon dioxide, after a day) | peak intensity at 455 nm ([3]; contacting pure oxygen, 2 h) | peak intensity degradation ([3]; after 24 h) [%] | peak intensity degradation ([3]; after a week) [%] | peak intensity of NRH2 (455 nm) lowered by ([3]; oxygen atmosphere, a day) [%] | peak intensity of NRH2 (455 nm) lowered by ([3]; sealed under oxygen atmosphere after 24 h bubbling, a week) [%] | Structure (SMILES) | decomposition, reoxidation or polymerization products by NMR studies ([3]; NRH2 solutions)
6.8 | no significant decay |  |  |  |  |  |  |  |  | Cc1cc2nc3ccc(N(C)C)cc3nc2cc1N.Cl [NR, neutral red] | 
 |  | insensitive to oxygen | the same | no significant degradation | maintained | 33 | 53 | 42 | 52 | Cc1cc2c(cc1N)Nc1cc(N(C)C)ccc1N2 [NRH2, leuco-neutral red] | No major decomposition, reoxidation, or polymerization products
